# Earlier results, collected in US20030224072A1, “Topical and oral administration of a composition containing Pelargonium Graveolens for diagnosis and treatment of various neuralgias and other conditions” (priority 2002, published 2003).
# Tested on: neuropathic pain
# Conditions: topical
compound,measurement,value
COc1cc(CNC(=O)CCCC/C=C/C(C)C)ccc1O [Capsaicin],duration of burning sensation on skin,approximately one week
same,share of neuropathic pain patients with pain relief,only a small percentage
